Measurements: patent US10174047B2, “Thienodiazepine derivatives or pharmaceutically acceptable salts thereof, and pharmaceutical composition including the same as an active ingredient” (Industry-University Cooperation Foundation Hanyang …, priority 2015, dated 2019)

tested on: A375P cell line (melanoma); assay: Proliferation inhibition activity against A375P cell line (MTT assay); format: cell-based; conditions: A375P melanoma cells, MTT assay; read-out: A375P (GI50)
Protocol: Measurement of Proliferation Inhibition Activity Against A375P Cell Line (Melanoma)
An A375P cell line purchased from ATCC was cultured in a DMEM medium [containing 10% FBS, 1% penicillin/streptomycin] at 37° C. in the presence of 5% CO2. The cultured A375P cell line was taken using 0.05% trypsin-0.02% EDTA, and seeded into a 96-well plate at a density of 5×10^3 cells per well.
Cell viability was measured using an MTT [3-(4,5-dimethylthiazol-2-yl)-2,5-diphenyltetrazolium bromide] assay (CellTiter 96 Assay, Promega) as follows. 15 μl of dye was placed per well, the cells were cultured for 2 hours, and then treated with 100 μl of a stop solution, and after 24 hours, absorbance was measured. One day after plating, they were treated with compounds. For treatment with compounds, […] of stock was prepared, and serially diluted to one-third in dimethyl sulfoxide (DMSO) to prepare a 12-point test compound plate, and 0.5 μl was added (final concentration DMSO 0.5%).
In the following Tables 1 to 3, in a case of GI50 being 10 to 30 μM, it was indicated as (+), in a case of it being 1 to 10 μM, it was indicated as (++), and in case of being less than 1 μM, it was indicated as (+++).

| Structure (SMILES) | GI50 |
| --- | --- |
| O=C1CC(c2ccc(NC(=O)c3ccc(Cl)c(C(F)(F)F)c3)cc2)=Nc2cscc2N1 [Example 1, 4-chloro-N-(4-(2-oxo-2,3-dihydro-1H-thieno[3,4-b][1,4]diazepine-4-yl)phenyl)-3-(trifluoromethyl)benzamide] | 1 to 10 µM |
| Cc1cn(-c2cc(C(=O)Nc3ccc(C4=Nc5cscc5NC(=O)C4)cc3)cc(C(F)(F)F)c2)cn1 [Example 2, 3-(4-methyl-1H-imidazol-1-yl)-N-(4-(2-oxo-2,3-dihydro-1H-thieno[3,4-b][1,4]diazepine-4-yl)phenyl)-5-(trifluoromethyl)benzamide] | < 1 µM |
| O=C1CC(c2ccc(NC(=O)c3cnccn3)cc2)=Nc2cscc2N1 [Example 11, N-(4-(2-oxo-2,3-dihydro-1H-thieno[3,4-b][1,4]diazepine-4-yl)phenyl)pyrazine-2-carboxamide] | 10 to 30 µM |
| O=C1CC(c2cccc(NC(=O)c3cc(N4CCOCC4)cc(C(F)(F)F)c3)c2)=Nc2cscc2N1 [Example 20, 3-morpholino-N-(3-(2-oxo-2,3-dihydro-1H-thieno[3,4-b][1,4]diazepine-4-yl)phenyl)-5-(trifluoromethyl)benzamide] | < 1 µM |
| O=C1CC(c2cccc(NC(=O)c3ccc(N4CCOCC4)c(C(F)(F)F)c3)c2)=Nc2cscc2N1 [Example 21, 4-morpholino-N-(3-(2-oxo-2,3-dihydro-1H-thieno[3,4-b][1,4]diazepine-4-yl)phenyl)-3-(trifluoromethyl)benzamide] | 1 to 10 µM |
| O=C1CC(c2cccc(NC(=O)c3ccc(-c4ccccc4)cc3)c2)=Nc2cscc2N1 [Example 22, N-(3-(2-oxo-2,3-dihydro-1H-thieno[3,4-b][1,4]diazepine-4-yl)phenyl)biphenyl-4-carboxamide] | 10 to 30 µM |
| CC(=O)N1CCC(C(=O)Nc2cccc(C3=Nc4cscc4NC(=O)C3)c2)CC1 [Example 25, 1-acetyl-N-(3-(2-oxo-2,3-dihydro-1H-thieno[3,4-b][1,4]diazepine-4-yl)phenyl)piperidine-4-carboxamide] | 10 to 30 µM |
| O=C1CC(c2cccc(NC(=O)C(c3ccc(Cl)cc3)c3ccc(Cl)cc3)c2)=Nc2cscc2N1 [Example 26, 2,2-bis(4-chlorophenyl)-N-(3-(2-oxo-2,3-dihydro-1H-thieno[3,4-b][1,4]diazepine-4-yl)phenyl)acetamide] | 10 to 30 µM |
| O=C1CC(c2cccc(NC(=O)c3ccncc3)c2)=Nc2cscc2N1 [Example 27, N-(3-(2-oxo-2,3-dihydro-1H-thieno[3,4-b][1,4]diazepine-4-yl)phenyl)isonicotinamide] | 10 to 30 µM |
| O=C1CC(c2cccc(NC(=O)c3cnccn3)c2)=Nc2cscc2N1 [Example 28, N-(3-(2-oxo-2,3-dihydro-1H-thieno[3,4-b][1,4]diazepine-4-yl)phenyl)pyrazine-2-carboxamide] | 10 to 30 µM |
| CN1CCN(c2cc(C(=O)Nc3cccc(C4=Nc5cscc5NC(=O)C4)c3)cc(C(F)(F)F)c2)CC1 [Example 29, 3-(4-methylpiperazine-1-yl)-N-(3-(2-oxo-2,3-dihydro-1H-thieno[3,4-b][1,4]diazepine-4-yl)phenyl)-5-(trifluoromethyl)benzamide] | 10 to 30 µM |
| O=C1CC(c2cccc(NC(=O)c3ccc(Cl)cc3)c2)=Nc2cscc2N1 [Example 30, 4-chloro-N-(3-(2-oxo-2,3-dihydro-1H-thieno[3,4-b][1,4]diazepine-4-yl)phenyl)benzamide] | 10 to 30 µM |
| O=C(Cc1c[nH]c2ccccc12)Nc1cccc(C2=Nc3cscc3NC(=O)C2)c1 [Example 31, 2-(1H-indol-3-yl)-N-(3-(2-oxo-2,3-dihydro-1H-thieno[3,4-b][1,4]diazepine-4-yl)phenyl)acetamide] | 10 to 30 µM |
| N#Cc1ccccc1Sc1ccccc1C(=O)Nc1cccc(C2=Nc3cscc3NC(=O)C2)c1 [Example 32, 2-(2-cyanophenylthio)-N-(3-(2-oxo-2,3-dihydro-1H-thieno[3,4-b][1,4]diazepine-4-yl)phenyl)benzamide] | 10 to 30 µM |

The next lines start with the values.

| GI50 | Structure (SMILES) |
| --- | --- |
| < 1 µM | O=C1CC(c2ccc(NC(=O)c3cc(N4CCOCC4)cc(C(F)(F)F)c3)cc2)=Nc2cscc2N1 [Example 3, 3-morpholino-N-(4-(2-oxo-2,3-dihydro-1H-thieno[3,4-b][1,4]diazepine-4-yl)phenyl)-5-(trifluoromethyl)benzamide] |
| 1 to 10 µM | O=C1CC(c2ccc(NC(=O)c3ccc(N4CCOCC4)c(C(F)(F)F)c3)cc2)=Nc2cscc2N1 [Example 4, 4-morpholino-N-(4-(2-oxo-2,3-dihydro-1H-thieno[3,4-b][1,4]diazepine-4-yl)phenyl)-3-(trifluoromethyl)benzamide] |
| < 1 µM | O=C1CC(c2ccc(NC(=O)c3ccc(-c4ccccc4)cc3)cc2)=Nc2cscc2N1 [Example 5, N-(4-(2-oxo-2,3-dihydro-1H-thieno[3,4-b][1,4]diazepine-4-yl)phenyl)biphenyl-4-carboxamide] |
| 10 to 30 µM | O=C1CC(c2ccc(NC(=O)c3ccccc3-c3ccccc3)cc2)=Nc2cscc2N1 [Example 6, N-(4-(2-oxo-2,3-dihydro-1H-thieno[3,4-b][1,4]diazepine-4-yl)phenyl)biphenyl-2-carboxamide] |
| 1 to 10 µM | O=C1CC(c2ccc(NC(=O)c3cnn(-c4ccccc4)c3C(F)(F)F)cc2)=Nc2cscc2N1 [Example 7, N-(4-(2-oxo-2,3-dihydro-1H-thieno[3,4-b][1,4]diazepine-4-yl)phenyl)-1-phenyl-5-(trifluoromethyl)-1H-pyrazole-4-carboxamide] |
| 10 to 30 µM | CC(=O)N1CCC(C(=O)Nc2ccc(C3=Nc4cscc4NC(=O)C3)cc2)CC1 [Example 8, 1-acetyl-N-(4-(2-oxo-2,3-dihydro-1H-thieno[3,4-b][1,4]diazepine-4-yl)phenyl)piperidine-4-carboxamide] |
| 10 to 30 µM | O=C1CC(c2ccc(NC(=O)C(c3ccc(Cl)cc3)c3ccc(Cl)cc3)cc2)=Nc2cscc2N1 [Example 9, 2,2-bis(4-chlorophenyl)-N-(4-(2-oxo-2,3-dihydro-1H-thieno[3,4-b][1,4]diazepine-4-yl)phenyl)acetamide] |
| 10 to 30 µM | O=C1CC(c2ccc(NC(=O)c3ccncc3)cc2)=Nc2cscc2N1 [Example 10, N-(4-(2-oxo-2,3-dihydro-1H-thieno[3,4-b][1,4]diazepine-4-yl)phenyl)isonicotinamide] |
| 10 to 30 µM | CN1CCN(c2cc(C(=O)Nc3ccc(C4=Nc5cscc5NC(=O)C4)cc3)cc(C(F)(F)F)c2)CC1 [Example 12, 3-(4-methylpiperazine-1-yl)-N-(4-(2-oxo-2,3-dihydro-1H-thieno[3,4-b][1,4]diazepine-4-yl)phenyl)-5-(trifluoromethyl)benzamide] |
| 10 to 30 µM | O=C1CC(c2ccc(NC(=O)c3ccc(Cl)cc3)cc2)=Nc2cscc2N1 [Example 13, 4-chloro-N-(4-(2-oxo-2,3-dihydro-1H-thieno[3,4-b][1,4]diazepine-4-yl)phenyl)benzamide] |
| 10 to 30 µM | O=C(Cc1c[nH]c2ccccc12)Nc1ccc(C2=Nc3cscc3NC(=O)C2)cc1 [Example 14, 2-(1H-indol-3-yl)-N-(4-(2-oxo-2,3-dihydro-1H-thieno[3,4-b][1,4]diazepine-4-yl)phenyl)acetamide] |
| 10 to 30 µM | N#Cc1ccccc1Sc1ccccc1C(=O)Nc1ccc(C2=Nc3cscc3NC(=O)C2)cc1 [Example 15, 2-(2-cyanophenylthio)-N-(4-(2-oxo-2,3-dihydro-1H-thieno[3,4-b][1,4]diazepine-4-yl)phenyl)benzamide] |
| 10 to 30 µM | O=C(Cc1ccc(-c2ccccc2)cc1)Nc1ccc(C2=Nc3cscc3NC(=O)C2)cc1 [Example 16, 2-(biphenyl-4-yl)-N-(4-(2-oxo-2,3-dihydro-1H-thieno[3,4-b][1,4]diazebine-4-yl)phenyl)acetamide] |
| 10 to 30 µM | Cc1cc(C)cc(C(=O)Nc2ccc(C3=Nc4cscc4NC(=O)C3)cc2)c1 [Example 17, 3,5-dimethyl-N-(4-(2-oxo-2,3-dihydro-1H-thieno[3,4-b][1,4]diazepine-4-yl)phenyl)benzamide] |
| 1 to 10 µM | O=C1CC(c2cccc(NC(=O)c3ccc(Cl)c(C(F)(F)F)c3)c2)=Nc2cscc2N1 [Example 18, 4-chloro-N-(3-(2-oxo-2,3-dihydro-1H-thieno[3,4-b][1,4]diazepine-4-yl)phenyl)-3-(trifluoromethyl)benzamide] |
| 10 to 30 µM | Cc1cn(-c2cc(C(=O)Nc3cccc(C4=Nc5cscc5NC(=O)C4)c3)cc(C(F)(F)F)c2)cn1 [Example 19, 3-(4-methyl-1H-imidazol-1-yl)-N-(3-(2-oxo-2,3-dihydro-1H-thieno[3,4-b][1,4]diazepine-4-yl)phenyl)-5-(trifluoromethyl)benzamide] |
| 10 to 30 µM | O=C1CC(c2cccc(NC(=O)c3ccccc3-c3ccccc3)c2)=Nc2cscc2N1 [Example 23, N-(3-(2-oxo-2,3-dihydro-1H-thieno[3,4-b][1,4]diazepine-4-yl)phenyl)biphenyl-2-carboxamide] |
| 10 to 30 µM | O=C1CC(c2cccc(NC(=O)c3cnn(-c4ccccc4)c3C(F)(F)F)c2)=Nc2cscc2N1 [Example 24, N-(3-(2-oxo-2,3-dihydro-1H-thieno[3,4-b][1,4]diazepine-4-yl)phenyl)-1-phenyl-5-(trifluoromethyl)-1H-pyrazole-4-carboxamide] |

same assay, conditions: A375P melanoma cells, statement in words

| Structure (SMILES) | effects against A375P |
| --- | --- |
| Cc1cn(-c2cc(C(=O)Nc3ccc(C4=Nc5cscc5NC(=O)C4)cc3)cc(C(F)(F)F)c2)cn1 [Example 2, 3-(4-methyl-1H-imidazol-1-yl)-N-(4-(2-oxo-2,3-dihydro-1H-thieno[3,4-b][1,4]diazepine-4-yl)phenyl)-5-(trifluoromethyl)benzamide] | significant effects |
| O=C1CC(c2ccc(NC(=O)c3cc(N4CCOCC4)cc(C(F)(F)F)c3)cc2)=Nc2cscc2N1 [Example 3, 3-morpholino-N-(4-(2-oxo-2,3-dihydro-1H-thieno[3,4-b][1,4]diazepine-4-yl)phenyl)-5-(trifluoromethyl)benzamide] | significant effects |
| O=C1CC(c2ccc(NC(=O)c3ccc(-c4ccccc4)cc3)cc2)=Nc2cscc2N1 [Example 5, N-(4-(2-oxo-2,3-dihydro-1H-thieno[3,4-b][1,4]diazepine-4-yl)phenyl)biphenyl-4-carboxamide] | significant effects |
| O=C1CC(c2cccc(NC(=O)c3cc(N4CCOCC4)cc(C(F)(F)F)c3)c2)=Nc2cscc2N1 [Example 20, 3-morpholino-N-(3-(2-oxo-2,3-dihydro-1H-thieno[3,4-b][1,4]diazepine-4-yl)phenyl)-5-(trifluoromethyl)benzamide] | significant effects |
